According to publication PMC2920882 (BMC Cancer, 2010):
Entries after “also recorded” stand apart in the source; their conditions may differ. Numbered stars: 1 amine (or outer) side, 2 acyl side, 3 side chain; on linkers, the order of the positions; unused ones are H or OH. Bridge positions count the residues as written; N and C are the ends. Square brackets hold non-standard residues; d marks the D form. Peptide text beside a SMILES is read from it. I, II: the chains in the order shown. Gly(N-piperonyl) = O=C(O)CNCc1ccc2c(c1)OCO2; X1 = CC(CN(CC(=O)[*:2])[*:1])c1ccccc1; Nleu = CC(C)CNCC(=O)O; Nlys = NCCCCNCC(=O)O; Ahx = NCCCCCC(=O)O; Nme = COCCNCC(=O)O; βAla = NCCC(=O)O

Tests used:
MMTV-PyMT tumors [1] = test: Perilipin and adiponectin immunohistochemistry of MMTV-PyMT tumors (tumor fat content); conditions: for tumor fat content (residual adipose tissue): MMTV-PyMT tumors after 19 days treatment, H&E and adipocyte markers
MMTV-PyMT tumors [2] = test: H&E histology of MMTV-PyMT tumors; conditions: formalin-fixed tumors after 19 days treatment
[3] = tested on: MMTV-PyMT transgenic model of breast cancer; test: MMTV-PyMT breast cancer therapy study: tumor volume, tumor weight, efficacy; conditions: for tumor volume vs control: MMTV-PyMT mice, 19 days from age 6 weeks, GU81 260 μg/day osmotic pump, doxorubicin 2 mg/kg once weekly, 2-way ANOVA; for total tumor weight vs control: at sacrifice (age 60 days), p ≤ 0.01 for combination, 1-way ANOVA
MMTV-PyMT tumors [4] = test: Tumor VEGF immunohistochemistry; conditions: percent VEGF positive area, vs control, p ≤ 0.05 for GU81 alone, t-test; 3 animals/group, 5 sections/animal
MMTV-PyMT tumors [5] = tested on: MMTV-PyMT tumors
Met-1 cells [6] = conditions: 2.5 μM GU81, 72 hours, serum-free DMEM, p < 0.05 vs SFM, 1-way ANOVA
Method: Tumor-conditioned media (TCM) was collected and RNA harvested using TRIzol (Invitrogen) according to the manufacturer's directions at 24, 48, and 72 hours post-treatment. The quality of RNA was evaluated using spectrophotometry. The cDNA used for subsequent PCR was made using iScript (Bio-Rad Laboratories). The expression of VEGF was analyzed by quantitative real-time PCR using assay on demand from Applied Biosystems (Mm00437308_m1). […] Quantitative real-time PCR was performed in a reaction volume of 20 μL of cDNA and each reaction was performed in triplicate. We used the comparative Ct method to compute relative expression values. TCM was diluted 1:5 prior to analysis for VEGF concentration using the Quantikine Mouse VEGF Immunoassay (R&D Systems).
Results are expressed as mean ± SEM.

[7] = tested on: MMTV-PyMT transgenic model of breast cancer; conditions: cited from earlier work
Met-1 cells [8] = conditions: GU81 treatment, mRNA and protein
MMTV-PyMT tumors [9] = conditions: cited from earlier work
From the text: Macrophage infiltration is associated with poor prognosis in a number of different tumor types, including breast cancer. […] This increase in macrophage infiltration is puzzling ...

VEGFR2 = molecular target: T1, VEGFR2 (Homo sapiens, UniProt P35968); test: Fluorescence-based ELISA, VEGFR2 binding; conditions: vs GU40C4 (ref 12)
T1 construct: purchased R&D Systems
Method: Wells were washed with 5 × 200 μL of PBS and fluorescence was measured at 520 nm using a plate reader (Fluostar Optima, BMG Laboratories, Durham, NC).

MMTV-PyMT tumors [10] = test: Endomucin immunohistochemistry (vessel number, vascular area, vessel size)
[11] = tested on: 4T1 syngenic breast cancer model; conditions: 4T1 syngeneic model; cited from earlier work
MMTV-PyMT tumors [12] = test: F4/80 macrophage infiltration immunohistochemistry; conditions: percent F4/80 positive area, p ≤ 0.05 vs control, t-test; 3 animals/group, 5 sections/animal
VEGFR2 (PAE-KDR cells) = molecular target: T2, VEGFR2 (PAE-KDR cells) (Homo sapiens, UniProt P35968); test: VEGFR2 autophosphorylation assay, PAE-KDR cells; assay type: cell-based
T2 construct: host or cells: PAE-KDR cells
Method: Experiments were conducted using PAE-KDR (Sibtech Inc., Brookfield, CT) and HUVEC (Sciencecell, Carlsbad, CA) cells. […] Cells were harvested with lysis buffer, and lysates were separated by SDS-PAGE and transferred to PVDF membranes. Membranes were probed with anti phospho-VEGF receptor 2 (Tyr1175, 19A10) or total anti-VEGFR2 primary antibodies (Cell Signaling Technology, Danvers, MA) and subsequently developed with appropriate HRP-conjugated secondary antibody (BioRad Laboratories, Hercules, CA) followed by enhanced chemiluminescent detection (Pierce).

HUVEC = conditions: when compared to GU40C4

T2 sequence (P35968 20-1356): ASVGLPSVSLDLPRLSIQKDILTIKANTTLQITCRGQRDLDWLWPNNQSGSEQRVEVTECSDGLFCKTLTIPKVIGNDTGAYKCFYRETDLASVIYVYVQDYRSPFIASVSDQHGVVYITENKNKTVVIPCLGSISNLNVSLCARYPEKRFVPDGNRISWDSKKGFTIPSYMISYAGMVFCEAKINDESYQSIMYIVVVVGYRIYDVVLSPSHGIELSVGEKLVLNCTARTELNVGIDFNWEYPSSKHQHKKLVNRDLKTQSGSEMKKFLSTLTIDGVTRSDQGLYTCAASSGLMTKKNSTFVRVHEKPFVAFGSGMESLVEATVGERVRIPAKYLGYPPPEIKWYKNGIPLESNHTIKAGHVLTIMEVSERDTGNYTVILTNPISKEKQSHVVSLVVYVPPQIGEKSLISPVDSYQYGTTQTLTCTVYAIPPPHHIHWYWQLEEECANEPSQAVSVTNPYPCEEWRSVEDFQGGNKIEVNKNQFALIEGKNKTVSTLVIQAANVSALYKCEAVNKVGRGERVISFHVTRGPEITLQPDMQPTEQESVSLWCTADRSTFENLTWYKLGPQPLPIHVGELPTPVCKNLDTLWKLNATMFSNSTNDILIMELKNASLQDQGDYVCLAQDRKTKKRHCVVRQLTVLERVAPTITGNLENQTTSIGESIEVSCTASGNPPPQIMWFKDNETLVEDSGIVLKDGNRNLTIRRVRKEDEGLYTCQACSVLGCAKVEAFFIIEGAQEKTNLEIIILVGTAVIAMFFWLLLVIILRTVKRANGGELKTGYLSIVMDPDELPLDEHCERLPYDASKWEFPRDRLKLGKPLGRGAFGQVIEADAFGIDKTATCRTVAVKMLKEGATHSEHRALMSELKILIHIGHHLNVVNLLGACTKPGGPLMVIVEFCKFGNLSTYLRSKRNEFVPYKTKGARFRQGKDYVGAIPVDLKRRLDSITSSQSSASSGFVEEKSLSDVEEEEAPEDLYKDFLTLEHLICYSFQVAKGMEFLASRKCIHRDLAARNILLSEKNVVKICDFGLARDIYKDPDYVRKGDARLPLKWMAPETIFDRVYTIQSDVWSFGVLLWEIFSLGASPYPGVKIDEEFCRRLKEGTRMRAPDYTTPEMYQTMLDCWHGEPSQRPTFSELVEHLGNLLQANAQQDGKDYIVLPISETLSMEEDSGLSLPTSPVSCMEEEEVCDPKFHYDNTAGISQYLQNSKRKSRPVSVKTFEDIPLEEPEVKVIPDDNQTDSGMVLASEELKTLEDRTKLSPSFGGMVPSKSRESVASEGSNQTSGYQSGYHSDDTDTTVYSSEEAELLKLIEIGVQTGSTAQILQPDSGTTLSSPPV
T1 sequence (P35968 20-1356): as above

COc1cccc2c1C(=O)c1c(O)c3c(c(O)c1C2=O)C[C@@](O)(C(=O)CO)C[C@@H]3O[C@H]1C[C@H](N)[C@H](O)[C@H](C)O1 [doxorubicin, reference compound]
adiponectin staining vs control (MMTV-PyMT tumors [1]; Cy3 positive area, vs control, p≤0.05, t-test): significantly increased
tumor fat content (residual adipose tissue) (MMTV-PyMT tumors [1]): no effect on tumor weight, histology, tumor fat content, or tumor growth index
tumor histology / progression / invasion (MMTV-PyMT tumors [2]): no effect on tumor weight, histology, tumor fat content, or tumor growth index; also recorded: displayed areas of invasive carcinoma; although the invasive component of the tumor was reduced when compared to control and GU81-treated animals; also recorded: clearly invasive adenocarcinomas
tumor volume vs control [3]: significantly reduced tumor volume compared to control treated animals
total tumor weight vs control [3]: no effect on tumor weight, histology, tumor fat content, or tumor growth index
tumor VEGF level (MMTV-PyMT tumors [4]): neither treatment with doxorubicin alone or in combination with GU81 had significant effects on VEGF expression
cytostatic / cytocidal character of the therapy (MMTV-PyMT tumors [5]; from proliferation, apoptosis and growth index): cytostatic
tumor growth index vs control (MMTV-PyMT tumors [5]; phospho-histone-3 / cleaved caspase-3 positive cells per 200× field, vs control, p ≤ 0.05 for combination, 1-way ANOVA): no effect on tumor weight, histology, tumor fat content, or tumor growth index
phospho-histone-3 positive cells (proliferation) vs control (MMTV-PyMT tumors [5]; vs control, p ≤ 0.01 (doxorubicin, combination), 1-way ANOVA, 3 animals/group, 5 sections/animal): fewer phospho-histone-3 positive cells when compared to tumors from control treated animals
cleaved (active) caspase-3 positive cells (apoptosis) vs control (MMTV-PyMT tumors [5]; vs control, p ≤ 0.05 (doxorubicin), 1-way ANOVA, 3 animals/group, 5 sections/animal): significantly fewer active caspase-3 positive cells when compared to tumors from control-treated animals

COCCN(CC(=O)N(CC(=O)N(CC(=O)N(CCCCN)CC(=O)N(CC(=O)N(CCCCN)CC(=O)N(CCCCN)CC(=O)NCCCCCC(=O)NCCC(=O)N[C@@H](CCCCNC(=O)CN(CCCCN)C(=O)CN(CCCCN)C(=O)CN(CC(C)C)C(=O)CN(CCCCN)C(=O)CN(Cc1ccc2c(c1)OCO2)C(=O)CN(CC(C)c1ccccc1)C(=O)CN(CCOC)C(=O)CN(CC(C)C)C(=O)CNCCCCN)C(N)=O)CC(C)C)Cc1ccc2c(c1)OCO2)CC(C)c1ccccc1)C(=O)CN(CC(C)C)C(=O)CNCCCCN (stereo partly drawn) [GU81] (I: H-[Nlys][Nleu][Nme][X1][Gly(N-piperonyl)][Nlys][Nleu][Nlys][Nlys][Ahx][βAla]K-NH2 / II: H-[Nlys][Nleu][Nme][X1][Gly(N-piperonyl)][Nlys][Nleu][Nlys][Nlys]; amide I:12-II:C)
tumor fat content (residual adipose tissue) (MMTV-PyMT tumors [1]): no effect on tumor weight, histology, tumor fat content, or tumor growth index
VEGF mRNA level in Met-1 cells (Met-1 cells [6]): significantly increased after 72 hours of GU81 treatment; also recorded: significant increase in VEGF gene transcription following 72 hrs of GU81 treatment
in vivo efficacy as a single agent, MMTV-PyMT model [7]: does not demonstrate in vivo efficacy as a single agent in the MMTV-PyMT model of breast cancer
VEGF expression in Met-1 cells (discussion) (Met-1 cells [8]): increased VEGF expression following treatment with GU81
tumor histology / progression / invasion (MMTV-PyMT tumors [2]): no effect on tumor weight, histology, tumor fat content, or tumor growth index; also recorded: did not alter this histology
tumor histology / progression / invasion (MMTV-PyMT tumors [2]; listed as GUI81): clearly invasive adenocarcinomas
macrophage infiltration, single agent (MMTV-PyMT tumors [9]): increases macrophage infiltration as a single-agent
therapeutic efficacy in MMTV-PyMT model ([3]; GU81 260 μg/day alone or with doxorubicin 2 mg/kg once weekly, 19 days): little therapeutic efficacy when used alone; also recorded: not effective as a single agent in the MMTV-PyMT model of breast cancer
tumor volume vs control [3]: did not have a significant effect on either tumor volume or tumor weight
total tumor weight vs control [3]: no effect on tumor weight, histology, tumor fat content, or tumor growth index; also recorded: did not have a significant effect on either tumor volume or tumor weight
improvement of KD over the original GU40C4 (VEGFR2): 3 -fold
total vessel number (MMTV-PyMT tumors [10]; endomucin, vessels per 200× field, 3 animals/group, 5 sections/animal): no effect on total vessel number; also recorded: do not see a decrease in vessel number
total vascular area, GU81 alone (MMTV-PyMT tumors [10]; percent endomucin positive area per 200× field, vs control, p < 0.001, t-test): able to significantly to reduce total vascular area as a single agent; also recorded: decreased total vascular area; also recorded: reduces total vascular area and vessel size; also recorded: decrease in total vascular area and vessel size
vessel size (MMTV-PyMT tumors [10]; percent fluorescent area divided by total vessel number, vs control, t-test): reduces total vascular area and vessel size; also recorded: decrease in total vascular area and vessel size
tumor VEGF level (MMTV-PyMT tumors [4]): increased tumor-VEGF levels and macrophage infiltration; also recorded: significantly increased levels of VEGF compared to tumors from control-treated mice; also recorded: increased tumor VEGF expression in this model
tumor size, 4T1 model, single agent [11]: effectively reduces tumor size and MVD
macrophage infiltration vs control (MMTV-PyMT tumors [12]): increased tumor-VEGF levels and macrophage infiltration; also recorded: significantly increased following treatment with GU81; also recorded: induces macrophage infiltration in vivo
block of VEGF-induced VEGFR2 phosphorylation (VEGFR2 (PAE-KDR cells); PAE-KDR cells, increasing concentrations of GU81 15 min, VEGF 1.3 nM 7 min, 37°C, Western blot): effectively blocks VEGF-induced VEGFR2 phosphorylation of PAE-KDR cells in a dose-dependent manner
in vitro efficacy (VEGFR2 (PAE-KDR cells); abstract: compared to GU40C4, discussion: in vitro biological efficacy): increased in vitro efficacy compared to GU40C4; also recorded: potent in vitro biological efficacy
expected inhibition of endothelial cell proliferation (HUVEC): more potent inhibitor of endothelial cell proliferation when compared to GU40C4
